This note sets out measurements from ChEMBL document CHEMBL1130493, “Dimeric aminoglycosides: Design, synthesis and RNA binding” (Bioorg Med Chem Lett, 1997).

The nature of data set [1]: Compound was tested for the pseudo first-order rate constants for the inhibition of the cleavage step (k2) of the hammerhead ribozyme at a concentration of 1 uM.
Data set [2] in a line: Compound was tested for the pseudo first-order rate constants for the inhibition of the cleavage step (k2) of the hammerhead ribozyme at a concentration of 10 uM.
Data set [3] can be described thus: Compound was tested for the pseudo first-order rate constants for the inhibition of the cleavage step (k2) of the hammerhead ribozyme at a concentration of 100 uM; not determined at this concentration.
A short description of data set [4]: Compound was tested for the pseudo first-order rate constants for the inhibition of the cleavage step (k2) of the hammerhead ribozyme at a concentration of 100 uM; too active and complete inhibition is observed.
A short description of data set [5]: Compound was tested for the pseudo first-order rate constants for the inhibition of the cleavage step (k2) of the hammerhead ribozyme at a concentration of 100 uM.
Data set [6] is described as follows: Compound was tested for the pseudo first-order rate constants for the inhibition of the cleavage step (k2) of the hammerhead ribozyme at a concentration of 100 uM; too active and complete inhibition is observed. This is another data set of the same source.
Data set [7] in a line: Compound was tested for the pseudo first-order rate constants for the inhibition of the cleavage step (k2) of the hammerhead ribozyme at a concentration of 1 uM; not determined at this concentration.

Turning to `NCC1O[C@H](O[C@H]2[C@@H](O)[C@H](O[C@H]3[C@H](O)[C@@H](N)C[C@@H](N)[C@@H]3O[C@H]3O[C@H](CN)[C@@H](O)[C@H](O)[C@H]3N)O[C@@H]2CSCCOCCSSCCOCCSC[C@H]2O[C@H](O[C@@H]3[C@@H](O)[C@H](O[C@H]4O[C@H](CN)[C@@H](O)C[C@H]4N)[C@@H](N)C[C@H]3N)[C@H](O)[C@@H](N)[C@@H]2O)[C@H](N)[C@@H](O)[C@@H]1O` (stereo partly specified), the K2 in data set [1] turned out to be 0.046 min⁻¹; in data set [2], 0.008 min⁻¹.
As for `NCC1O[C@H](O[C@H]2[C@@H](O)[C@H](O[C@H]3[C@H](O)[C@@H](N)C[C@@H](N)[C@@H]3O[C@H]3O[C@H](CN)[C@@H](O)[C@H](O)[C@H]3N)O[C@@H]2CSCCOCCSSCCOCCSC[C@H]2O[C@@H](O[C@H]3[C@H](O)[C@@H](N)C[C@@H](N)[C@@H]3O[C@H]3O[C@H](CN)[C@@H](O)[C@H](O)[C@H]3N)[C@H](O)[C@@H]2O[C@@H]2OC(CN)[C@H](O)[C@@H](O)[C@@H]2N)[C@H](N)[C@@H](O)[C@@H]1O` (stereo partly specified), the K2 in data set [1] was 0.041 min⁻¹; in data set [2], 0.003 min⁻¹; in data set [3], “No inhibition”.
`NC[C@H]1O[C@H](O[C@H]2[C@H](O)[C@@H](O[C@H]3O[C@H](CSCCOCCSSCCOCCSC[C@H]4O[C@H](O[C@@H]5[C@@H](O)[C@H](O[C@H]6O[C@H](CN)[C@@H](O)C[C@H]6N)[C@@H](N)C[C@H]5N)[C@H](O)[C@@H](N)[C@@H]4O)[C@@H](O)[C@H](N)[C@H]3O)[C@H](N)C[C@@H]2N)[C@H](O)[C@@H](O)[C@@H]1O`: the K2 result in data set [4] is “Too active and complete inhibition is observed”; in data set [2] it was 0.014 min⁻¹.
Consider `NC[C@H]1O[C@H](O[C@H]2[C@H](O)[C@@H](O[C@H]3O[C@H](CSCCOCCSSCCOCCSC[C@H]4O[C@H](O[C@@H]5[C@@H](O)[C@H](O[C@H]6O[C@H](CN)[C@@H](O)[C@H](O)[C@H]6O)[C@@H](N)C[C@H]5N)[C@H](O)[C@@H](N)[C@@H]4O)[C@@H](O)[C@H](N)[C@H]3O)[C@H](N)C[C@@H]2N)[C@H](O)[C@@H](O)[C@@H]1O`, for which the K2 result in data set [4] is “Too active and complete inhibition is observed”; in data set [2], 0.017 min⁻¹.
`NC[C@H]1OC(O[C@H]2[C@H](O)[C@@H](OC3O[C@H](CO)[C@@H](O)[C@H](N)[C@H]3O)[C@H](N)C[C@@H]2N)[C@H](N)C[C@@H]1O` (single isomer, unassigned) [TOBRAMYCIN]: the K2 entry in data set [4] was “Too active and complete inhibition is observed”; in data set [5] it was 0.012 min⁻¹; in data set [2], 0.051 min⁻¹.
On to `NC[C@@H]1O[C@H](O[C@H]2[C@@H](O)[C@H](O[C@@H]3[C@@H](O)[C@H](N)C[C@H](N)[C@H]3O[C@H]3O[C@H](CN)[C@@H](O)[C@H](O)[C@H]3N)O[C@@H]2CO)[C@H](N)[C@@H](O)[C@@H]1O` [FRAMYCETIN], for which the K2 in data set [1] is 0.062 min⁻¹; in data set [2] it was 0.018 min⁻¹; in data set [3], “No inhibition”.
As to `NC[C@H]1O[C@H](O[C@H]2[C@H](O)[C@@H](O[C@H]3O[C@H](CO)[C@@H](O)[C@H](N)[C@H]3O)[C@H](N)C[C@@H]2N)[C@H](O)[C@@H](O)[C@@H]1O` [KANAMYCIN A], the K2 result in data set [6] was “Too active and complete inhibition is observed”; in data set [4], “Too active and complete inhibition is observed”; in data set [5] it was 0.058 min⁻¹.
Consider `NC[C@H]1O[C@H](O[C@H]2[C@H](O)[C@@H](O[C@H]3O[C@H](CSCCOCCSSCCOCCSC[C@H]4O[C@H](O[C@@H]5[C@@H](O)[C@H](O[C@H]6O[C@H](CN)[C@@H](O)C[C@H]6N)[C@@H](N)C[C@H]5N)[C@H](O)[C@@H](N)[C@@H]4O)[C@@H](O)[C@H](N)[C@H]3O)[C@H](N)C[C@@H]2N)[C@H](N)C[C@@H]1O` [Tobramycin-Tobramycin], for which the K2 result was “No inhibition” in data set [7]; “Too active and complete inhibition is observed” in data set [4]; 0.011 min⁻¹ in data set [2].
